Laboratory results as given in the supplement of paper PMC10307832.

Columns and labels:
Assay in all cases: relative viability (nuclei count vs DMSO), 5 days (fraction); higher = more cells survive
[1] = compound: CCn1c(-c2nonc2N)nc2cnc(Oc3cccc(NC(=O)c4ccc(OCCN5CCOCC5)cc4)c3)cc21 + Cc1nc(NC(=O)N2CCC[C@H]2C(N)=O)sc1-c1ccnc(C(C)(C)C(F)(F)F)c1 [Alpelisib] (partner 2 µM)
Procedure, shortened: (§1)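 Cells from lung cancer lines were seeded into 1536-well plates and, one day later, dosed by pin tool. Treatments were either a single drug or a fixed dose of an anchor drug with five library-drug doses (not always all listed) in √10 steps. After 5 days, nuclei were stained in a one-step fixation (final 0.05% Triton X-100, 1% formaldehyde, 1 ug/ml Hoechst) and counted on 4× images, and relative viability is the treated-to-vehicle nuclei ratio, as the median of duplicate plates.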

[2] = compound: CCC1=CN=CN=C1N2CCN(CC2)CC3=NC4=C(N3)C=C(C=C4)C(F)(F)F + CS(=O)(=O)N1CCN(Cc2cc3nc(-c4cccc5[nH]ncc45)nc(N4CCOCC4)c3s2)CC1 [Pictilisib] (partner 1 µM)
Procedure, shortened: as §1

[3] = compound: CCC1=CN=CN=C1N2CCN(CC2)CC3=NC4=C(N3)C=C(C=C4)C(F)(F)F + C[C@]1(O)C[C@@H](c2nc(-c3ccc4ccc(-c5ccccc5)nc4c3)c3c(N)nccn32)C1 [Linsitinib] (partner 1 µM)
Procedure, shortened: as §1

Mirin + Bortezomib = compound: N=C1NC(=O)/C(=C/c2ccc(O)cc2)S1 [Mirin] + CC(C)C[C@H](NC(=O)[C@H](Cc1ccccc1)NC(=O)c1cnccn1)B(O)O [Bortezomib] (partner 0.002 µM)
Procedure, shortened: as §1

In the case of UMC-11, the relative viability ([1]; first compound 0.04 µM) is reported as 1.17, the relative viability ([1]; first compound 0.1265 µM) is reported as 0.991 and the relative viability ([1]; first compound 0.4 µM) is reported as 0.78. For the same cell line, the relative viability ([1]; first compound 1.265 µM) was 0.251, the relative viability ([1]; first compound 4 µM) was 0.233 and the relative viability ([2]; first compound 0.04 µM) was 0.723. The relative viability ([2]; first compound 0.1265 µM) was 0.832, the relative viability ([2]; first compound 0.4 µM) was 0.706 and the relative viability ([2]; first compound 1.265 µM) was 0.548. It also gave a relative viability ([2]; first compound 4 µM) of 0.741, a relative viability ([3]; first compound 0.04 µM) of 1.03 and a relative viability ([3]; first compound 0.1265 µM) of 1.02. The relative viability ([3]; first compound 0.4 µM) was 1.03, the relative viability ([3]; first compound 1.265 µM) was 0.958 and the relative viability ([3]; first compound 4 µM) was 0.944. For the same cell line, the relative viability (Mirin + Bortezomib; first compound 0.25 µM) was 0.876, the relative viability (Mirin + Bortezomib; first compound 0.7906 µM) was 0.457 and the relative viability (Mirin + Bortezomib; first compound 2.5 µM) was 0.629. It also gave a relative viability (Mirin + Bortezomib; first compound 7.906 µM) of 0.636 and a relative viability (Mirin + Bortezomib; first compound 25 µM) of 0.547.
